Data set [1] deals with Human peripheral blood mononuclear cells. In words: Human Concanavalin-A Proliferation Assay (Con HU Assay). In kind it is cell-based. The conditions noted are these: Homo sapiens, PBMC, concanavalin-A stimulated human PBMC; for inhibition at 10 µM / inhibition at 1 µM / inhibition at 100 µM: 72 h, 3 days, read-out: % Inhibition of proliferation (at concentrations of 1,10, or 100 μm); for inhibition at 10 µM: concentration 10 μm (in parentheses in the cell); for IC50: tritiated thymidine; for inhibition at 1 µM: concentration 1 μm (in parentheses in the cell); for inhibition at 100 µM: concentration 100 μm (in parentheses in the cell). An outline of the steps:
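Proliferation read as tritiated thymidine uptake (0.5 μCi/well, 6 h pulse on day 3) in human PBMC cultured 3 days with 2.5 μg/ml (final) concanavalin-A. Cells, 50,000 per well in supplemented RPMI 1640 with 10% FBS, received compound 15 min before mitogen.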

With `O=C(Nc1ccc(-n2nc(C(F)(F)F)cc2C(F)(F)F)cc1)c1cc(Cl)nc(Cl)c1` [Example 269, N-[4-[3,5-bis(trifluoromethyl)-1H-pyrazol-1-yl]phenyl]-2,6-dichloro-4-pyridinecarboxamide], the melting point fell in the range of 215 to 216 °C. For the same compound, in data set [1], the inhibition at 10 µM was determined as 99% and the IC50 was 392 nM.

For `O=C(Nc1ccc(-n2nc(C(F)(F)F)cc2-c2cccs2)cc1)c1ccncc1F` [Example 311, 3-fluoro-N-(4-(5-(2-thienyl)-3-(trifluoromethyl)-1H-pyrazol-1-yl)phenyl)isonicotinamide], the melting point lay in the range of 153 to 155 °C. In data set [1], this compound came in with a concentration for half-maximal inhibition (IC50) of 323 nM.

Compound `O=C(Nc1cccc(-n2nc(C(F)(F)F)cc2C(F)(F)F)c1)c1c(F)cccc1F` [Example 224, N-[3-[3,5-bis(trifluoromethyl)-1H-pyrazol-1-yl]phenyl]-2,6-difluorobenzamide] returned a melting point of 142 to 143 °C. Moreover, the inhibition at 1 µM in data set [1] was 2%.

As to `COc1ccc(Br)c(C(=O)Nc2ccc(-n3nc(C(F)(F)F)cc3C(F)(F)F)cc2)c1` [Example 219, N-[4-[3,5-bis(trifluoromethyl)-1H-pyrazol-1-yl]phenyl]-2-bromo-5-methoxybenzamide], the melting point was in the range of 179 to 181 °C. Besides, in data set [1], the inhibition at 10 µM stood at 100% and the IC50 came out at 214 nM.

The compound `O=C(Nc1ccc(-n2nc(C(F)(F)F)cc2C(F)(F)F)cc1)c1ccc(F)cc1Cl` [Example 206, N-[4-[3,5-bis(trifluoromethyl)-1H-pyrazol-1-yl]phenyl]-2-chloro-4-fluorobenzamide] had a melting point of 155 to 157 °C. In data set [1], the inhibition at 10 µM came to 100% and the IC50 worked out at 61 nM.

`Cc1c(NC(=O)Nc2ccc(-n3nc(C(F)(F)F)cc3C(F)(F)F)cc2)cccc1[N+](=O)[O-]` [Example 40, N-[4-[3,5-bis(trifluoromethyl)-1H-pyrazol-1-yl]phenyl]-N′-(2-methyl-3-nitrophenyl)urea]: the melting point lay in the range of 235 to 236 °C. Besides, the inhibition at 1 µM in data set [1] came to 36%.

In the case of `O=C(Nc1ccc(-n2nc(C(F)(F)F)cc2C(F)(F)F)cc1)c1cc2cc(F)ccc2[nH]1` [Example 20, N-[4-[3,5-bis(trifluoromethyl)-1H-pyrazol-1-yl]phenyl]-5-fluoro-1H-indole-2-carboxamide], the melting point fell in the range of 253 to 255 °C. The inhibition at 1 µM in data set [1] stood at 10%.

In turn, `N#Cc1cccc(C(=O)Nc2cccc(-n3nc(C(F)(F)F)cc3C(F)(F)F)c2)c1` [Example 204, N-[3-[3,5-bis(trifluoromethyl)-1H-pyrazol-1-yl]phenyl]-3-cyanobenzamide] yielded a melting point of 160 to 161 °C. In addition, the inhibition at 1 µM in data set [1] came out at 12%.

`N#Cc1cccc(/C=C/c2ccc(-n3nc(C(F)(F)F)cc3C(F)(F)F)cc2)c1` [Example 132, (E)-3-[2-[4-[3,5-bis(trifluoromethyl)-1H-pyrazol-1-yl]phenyl]ethenyl]benzonitrile] registered a melting point of 116 to 117 °C. In addition, in data set [1], the inhibition at 10 µM came to 56% and the midpoint of inhibition, the IC50, lay at 6220 nM.

In turn, `Cc1nc(C)c(C(=O)Nc2ccc(-n3nc(C(F)(F)F)cc3C(F)(F)F)cc2)s1` [Example 105, N-[4-[3,5-bis(trifluoromethyl)-1H-pyrazol-1-yl]phenyl]-2,4-dimethyl-5-thiazolecarboxamide] registered a melting point of 158 to 159 °C. In data set [1], the inhibition at 10 µM worked out at 100% and the IC50 was found to be 387 nM.

`O=C(Nc1ccc(-n2nc(C(F)(F)F)cc2C(F)(F)F)cc1)C1CC1c1ccccc1` (stereo not shown) [Example 68, N-[4-[3,5-bis(trifluoromethyl)-1H-pyrazol-1-yl]phenyl]-2-phenylcyclopropanecarboxamide] yielded a melting point of 176 to 178 °C. For the same compound, in data set [1], the inhibition at 100 µM worked out at 99% and the IC50 was determined as 2440 nM.

In turn, `Cc1c(C(=O)Nc2ccc(-n3nc(C(F)(F)F)cc3C(F)(F)F)cc2)cccc1[N+](=O)[O-]` [Example 15, N-[4-[3,5-bis(trifluoromethyl)-1H-pyrazol-1-yl]phenyl]-2-methyl-3-nitrobenzamide] showed a melting point of 194 to 195 °C. Further, in data set [1], the inhibition at 100 µM was determined as 99% and it took 274 nM to reach half-maximal inhibition (IC50).

As for `O=C(Nc1ccc(-n2nc(C(F)(F)F)cc2C(F)(F)F)cc1)c1ccc(F)cc1F` [Example 135, N-[4-[3,5-bis(trifluoromethyl)-1H-pyrazol-1-yl]phenyl]-2,4-difluorobenzamide], the melting point lay in the range of 126 to 128 °C. Besides, in data set [1], the inhibition at 100 µM was found to be 100% and it took 207 nM to reach half-maximal inhibition (IC50).

`O=C(Nc1ccc(-n2nc(C(F)(F)F)cc2C(F)(F)F)cc1)c1ccc(Cl)cc1[N+](=O)[O-]` [Example 117, N-[4-[3,5-bis(trifluoromethyl)-1H-pyrazol-1-yl]phenyl]-4-chloro-2-nitrobenzamide] came in with a melting point of 163 to 166 °C. In data set [1], the inhibition at 100 µM stood at 100% and the half-inhibitory concentration (IC50) amounted to 158 nM.

Compound `O=C(Nc1ccc(-n2nc(C(F)(F)F)cc2C(F)(F)F)cc1F)c1ccc(F)cc1F` [Example 272, N-[4-[3,5-bis(trifluoromethyl)-1H-pyrazol-1-yl]-2-fluorophenyl]-2,4-difluorobenzamide] gave a melting point of 66 to 67 °C. For the same compound, the inhibition at 1 µM in data set [1] was 10%.

As for `O=C(Nc1ccc(-n2nc(C(F)(F)F)cc2C(F)(F)F)cc1)c1ccccc1Br` [Example 147, N-[4-[3,5-bis(trifluoromethyl)-1H-pyrazol-1-yl]phenyl]-2-bromobenzamide], the melting point is 182 to 184 °C. Besides, in data set [1], the inhibition at 100 µM is 99% and the concentration for half-maximal inhibition (IC50) was 71 nM.

With `O=C(Nc1ccc(-n2nc(C(F)(F)F)cc2C(F)(F)F)cc1)c1ccnc(Cl)c1` [Example 245, N-[4-[3,5-bis(trifluoromethyl)-1H-pyrazol-1-yl]phenyl]-2-chloro-4-pyridinecarboxamide], the melting point was 183 to 184 °C. In data set [1], the inhibition at 100 µM was 100% and half-maximal inhibition (IC50) was put at 279 nM.

Compound `NC(=O)c1cccc(C(=O)Nc2ccc(-n3nc(C(F)(F)F)cc3C(F)(F)F)cc2)c1` [Example 138, N-[4-[3,5-bis(trifluoromethyl)-1H-pyrazol-1-yl]phenyl]-1,3-benzenedicarboxamide] showed a melting point of 244 to 245 °C. Besides, in data set [1], the inhibition at 10 µM was 99% and half-maximal inhibition (IC50) was put at 364 nM.

For `COc1cncc(Cl)c1C(=O)Nc1ccc(-n2nc(C(F)(F)F)cc2C(F)(F)F)cc1` [Example 291, N-(4-(3,5-bis(trifluoromethyl)-1H-pyrazol-1-yl)phenyl)-3-chloro-5-methoxyisonicotinamide], the melting point lay in the range of 187 to 188 °C. Besides, half-maximal inhibition in data set [1] (IC50) was put at 411 nM.

`Cc1nnsc1C(=O)Nc1ccc(-n2nc(C(F)(F)F)cc2C#N)cc1` [Example 302, N-(4-(5-cyano-3-(trifluoromethyl)-1H-pyrazol-1-yl)phenyl)-4-methyl-1,2,3-thiadiazole-5-carboxamide] came in with a melting point of 193 to 195 °C. The IC50 in data set [1] is 358 nM.

`O=C(Nc1ccc(-n2nc(C(F)(F)F)cc2C(F)(F)F)cc1)c1csc([N+](=O)[O-])c1` [Example 257, N-[4-[3,5-bis(trifluoromethyl)-1H-pyrazol-1-yl]phenyl]-5-nitro-3-thiophenecarboxamide] yielded a melting point of 164 to 165 °C. In data set [1], the inhibition at 10 µM was determined as 100% and 387 nM corresponded to half-maximal inhibition (IC50).

What is called IC50 is the concentration needed to halve the response being measured. Low values mean greater potency in that assay, high ones weaker potency in that assay. One may read the melting point as the temperature, or range, at which the solid turns liquid.

(Values after US20010044445A1, “AZOLE INHIBITORS OF CYTOKINE PRODUCTION” (priority 1999, published 2001).)
